From patent US11952349B2, “Anti-cancer nuclear hormone receptor-targeting compounds” (Nuvation Bio Inc., priority 2019, dated 2024)

Key:
[1] = target: T1, GR, cytosol from IM-9 cells (Homo sapiens, UniProt P04150); experiment: GR binding assay, 3H-Dexamethasone; settings: Table 8; 3H-Dexamethasone 1.5 nM
T1 construct: endogenous in cells; host or cells: IM-9 cells (cytosol)
T1 sequence (P04150 1-777): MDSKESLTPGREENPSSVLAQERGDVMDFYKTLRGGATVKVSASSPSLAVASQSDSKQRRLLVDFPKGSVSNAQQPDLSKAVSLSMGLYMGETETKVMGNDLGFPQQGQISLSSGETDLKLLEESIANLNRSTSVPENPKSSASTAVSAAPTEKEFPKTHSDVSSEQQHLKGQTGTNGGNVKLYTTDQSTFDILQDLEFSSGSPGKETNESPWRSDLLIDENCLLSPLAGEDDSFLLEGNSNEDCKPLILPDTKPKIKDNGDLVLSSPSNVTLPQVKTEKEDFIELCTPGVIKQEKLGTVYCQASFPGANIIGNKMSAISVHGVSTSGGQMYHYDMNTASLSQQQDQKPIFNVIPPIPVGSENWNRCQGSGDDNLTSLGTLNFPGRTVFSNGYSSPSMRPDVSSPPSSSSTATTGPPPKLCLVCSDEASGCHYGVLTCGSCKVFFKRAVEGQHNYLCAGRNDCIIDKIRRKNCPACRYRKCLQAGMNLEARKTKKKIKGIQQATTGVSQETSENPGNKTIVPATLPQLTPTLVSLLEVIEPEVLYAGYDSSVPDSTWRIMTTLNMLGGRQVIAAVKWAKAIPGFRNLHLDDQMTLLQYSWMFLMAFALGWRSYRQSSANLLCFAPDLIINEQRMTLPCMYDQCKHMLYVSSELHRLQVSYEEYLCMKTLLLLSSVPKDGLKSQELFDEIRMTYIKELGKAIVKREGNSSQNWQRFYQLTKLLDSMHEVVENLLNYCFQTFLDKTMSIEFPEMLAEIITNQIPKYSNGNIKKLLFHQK
Description: GR binding assay: To assess GR binding, test compound (top dose 1 μM, 4 fold serial dilution, 8 point dose response) and control (dexamethasone) were transferred to the assay plate. Cytosol from IM-9 cells was added to the plate, followed by addition of radiolabeled ^3H-Dexamethasone at a final concentration of 1.5 nM. The plate was sealed, and the reaction was incubated at 300 rpm at 4° C. for 24 hrs. Radioligand absorption buffer (10 mM Tris-HCl, pH 7.4; 1.5 mM EDTA; 1 mM DTT; 0.25% charcoal; 0.0025% dextran) was then added to the plate, mixed, and incubated at 4° C. for 15 minutes. The plate was then centrifuged at […] for 30 minutes at 4° C. The supernatant was transferred to the scint-tube and Tri-carb was used for scintillation counting. The data was analyzed using GraphPadPrism v5.0 and binding IC50 was determined as the concentration where 50% inhibition of radioligand binding was observed.

[2] = target: T2, Progesterone PR-B receptors from human breast carcinoma T47D cells (Homo sapiens, UniProt P06401); experiment: PR binding assay, [3H]Progesterone; settings: Table 8; 0.5 nM [3H]Progesterone
T2 construct: endogenous in cells; host or cells: T47D human breast carcinoma cells (cell supernatant)
T2 sequence (P06401 1-933): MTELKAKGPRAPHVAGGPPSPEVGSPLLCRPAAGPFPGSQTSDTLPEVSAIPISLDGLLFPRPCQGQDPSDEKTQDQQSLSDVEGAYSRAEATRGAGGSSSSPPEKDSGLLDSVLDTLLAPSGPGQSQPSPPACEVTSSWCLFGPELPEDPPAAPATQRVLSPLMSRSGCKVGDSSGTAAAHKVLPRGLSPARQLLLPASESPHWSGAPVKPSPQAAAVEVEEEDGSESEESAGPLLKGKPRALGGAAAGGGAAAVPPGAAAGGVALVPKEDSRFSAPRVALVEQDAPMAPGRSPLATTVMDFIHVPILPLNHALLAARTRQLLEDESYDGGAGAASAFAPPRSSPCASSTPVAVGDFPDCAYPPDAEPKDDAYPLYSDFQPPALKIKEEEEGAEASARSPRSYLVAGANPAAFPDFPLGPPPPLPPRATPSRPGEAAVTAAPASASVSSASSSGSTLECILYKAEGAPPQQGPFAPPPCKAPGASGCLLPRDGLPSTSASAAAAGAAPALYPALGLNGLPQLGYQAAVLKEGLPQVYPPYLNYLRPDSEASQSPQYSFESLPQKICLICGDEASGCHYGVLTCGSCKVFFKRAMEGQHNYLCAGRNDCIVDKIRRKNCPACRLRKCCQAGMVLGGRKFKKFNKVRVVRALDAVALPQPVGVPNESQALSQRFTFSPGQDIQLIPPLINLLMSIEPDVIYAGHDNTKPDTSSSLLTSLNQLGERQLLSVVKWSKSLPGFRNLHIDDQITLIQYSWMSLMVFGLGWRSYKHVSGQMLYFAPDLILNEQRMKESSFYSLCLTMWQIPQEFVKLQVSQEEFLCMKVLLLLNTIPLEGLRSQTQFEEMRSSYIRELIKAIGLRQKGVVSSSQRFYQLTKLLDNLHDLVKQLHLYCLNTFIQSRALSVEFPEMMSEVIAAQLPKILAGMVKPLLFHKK
Description: PR binding assay: Progesterone PR-B receptors from human breast carcinoma T47D cells are used in modified Na2HPO4/NaH2PO4 buffer pH 7.4. Compounds were screened at a range of doses (Top dose 40 nM, 4 fold serial dilution, 8 point dose response) and were dispensed into the assay plate. Supernatant of 1.2×10^5 cells aliquot was added to the assay plate and was incubated with 0.5 nM [^3H]Progesterone for 20 hours at 4° C. Membranes are filtered and washed, the filters are then counted to determine [^3H]Progesterone specifically bound. Binding IC50 was determined as the concentration where 50% inhibition of radioligand binding was observed.

T47D cells = experiment: Cell viability assay (CellTiterGlo, 6 days) T47D; assay type: cell-based; settings: Homo sapiens, 144 h, Table 8
Description: Cell viability assay: LNCap, 22Rv1, and T47D cells were seeded at a density of 1500-2000 cells/well in 96 well plates, and a ‘T0’ (timepoint 0) was included along with the assay plate. The plates were then incubated at 37° C., 5% CO2 in a cell culture incubator overnight. On the next day, the ‘T0’ plate was assayed using CellTiterGlo (Promega, Inc) according to the manufacturer's instructions. The appropriate compounds were diluted in DMSO and added to the assay plate (final DMSO concentration of 0.2%) on the next day. The assay plates were incubated for 6 days at 37° C., 5% CO2. After the incubation period, the plates were assayed using CellTiterGlo (Promega, Inc) according to the manufacturer's instructions and luminescence was read on the EnVision plate reader. Inhibition the tested compounds was determined by the following formula: Inhibition rate (%)=(1−(RLU compound−RLU day0)/(RLU control−RLU day0))*100%. GraphPadPrism was used to analyze the data and determine absolute IC50 values.

Structure (SMILES): CC#C[C@]1(O)CC[C@H]2[C@@H]3CCC4=CC(=O)CCC4=C3[C@@H](c3ccc(N(C)CCCCCC(=O)N4CCN(C(=O)c5cc(Cc6n[nH]c(=O)c7ccccc67)ccc5F)CC4)cc3)C[C@@]21C [Compound 135, 4-(4-fluoro-3-(4-(6-((4-((8S,11R,13S,14S,17S)-17-hydroxy-13-methyl-3-oxo-17-(prop-1-ynyl)-2,3,6,7,8,11,12,13,14,15,16,17-dodecahydro-1H-cyclopenta[a]phenanthren-11-yl)phenyl)(methyl)amino)hexanoyl)piperazine-1-carbonyl)benzyl)phthalazin-1(2H)-one]
- IC50 [1]: < 10 nM
- IC50 [2]: < 10 nM
- IC50 (T47D cells): 100 to 1000 nM

Structure (SMILES): CC(=O)O[C@]1(C(C)=O)CC[C@H]2[C@@H]3CCC4=CC(=O)CCC4=C3[C@@H](c3ccc(N(C)CCCCCC(=O)NCCOCCOCC(=O)N4CCN(C(=O)c5cc(Cc6n[nH]c(=O)c7ccccc67)ccc5F)CC4)cc3)C[C@@]21C [Compound 1384, (8S,11R,13S,14S,17R)-17-acetyl-11-(4-((6-(2-(2-(2-(4-(2-fluoro-5-((4-oxo-3,4-dihydrophthalazin-1-yl)methyl)benzoyl)piperazin-1-yl)-2-oxoethoxy)ethoxy)ethylamino)-6-oxohexyl)(methyl)amino)phenyl)-13-methyl-3-oxo-2,3,6,7,8,11,12,13,14,15,16,17-dodecahydro-1H-cyclopenta[a]phenanthren-17-yl acetate]
- IC50 [1]: < 10 nM
- IC50 [2]: < 10 nM
- IC50 (T47D cells): 1000 to 10000 nM

Structure (SMILES): C[C@]12CC[C@H]3[C@@H](CCC4=CC(=O)CC[C@@]43C)[C@@H]1CC[C@@H]2C(=O)COCCCCCC(=O)N1CCN(C(=O)c2cc(Cc3n[nH]c(=O)c4ccccc34)ccc2F)CC1 [Compound 1386, 4-(3-(4-(6-(2-((8S,9S,10R,13S,14S,17S)-10,13-dimethyl-3-oxo-2,3,6,7,8,9,10,11,12,13,14,15,16,17-tetradecahydro-1H-cyclopenta[a]phenanthren-17-yl)-2-oxoethoxy)hexanoyl)piperazine-1-carbonyl)-4-fluorobenzyl)phthalazin-1(2H)-one]
- IC50 [1]: 100 to 1000 nM
- IC50 [2]: 10 to 100 nM
- IC50 (T47D cells): 100 to 1000 nM

Structure (SMILES): CC(=O)O[C@]1(C(C)=O)CC[C@H]2[C@@H]3CCC4=CC(=O)CCC4=C3[C@@H](c3ccc(N(C)CCCCCC(=O)N4CCN(C(=O)c5cc(Cc6n[nH]c(=O)c7ccccc67)ccc5F)CC4)cc3)C[C@@]21C [Compound 1378, (8S,11R,13S,14S,17R)-17-acetyl-11-(4-((6-(4-(2-fluoro-5-((4-oxo-3,4-dihydrophthalazin-1-yl)methyl)benzoyl)piperazin-1-yl)-6-oxohexyl)(methyl)amino)phenyl)-13-methyl-3-oxo-2,3,6,7,8,11,12,13,14,15,16,17-dodecahydro-1H-cyclopenta[a]phenanthren-17-yl acetate]
- IC50 [1]: < 10 nM
- IC50 [2]: < 10 nM
- IC50 (T47D cells): 100 to 1000 nM

Structure (SMILES): CC#C[C@]1(O)CC[C@H]2[C@@H]3CCC4=CC(=O)CCC4=C3[C@@H](c3ccc(N(C)CCCCCC(=O)NCCOCCOCC(=O)N4CCN(C(=O)c5cc(Cc6n[nH]c(=O)c7ccccc67)ccc5F)CC4)cc3)C[C@@]21C [Compound 1429, N-(2-(2-(2-(4-(2-fluoro-5-((4-oxo-3,4-dihydrophthalazin-1-yl)methyl)benzoyl)piperazin-1-yl)-2-oxoethoxy)ethoxy)ethyl)-6-((4-((8S,11R,13S,14S,17S)-17-hydroxy-13-methyl-3-oxo-17-(prop-1-ynyl)-2,3,6,7,8,11,12,13,14,15,16,17-dodecahydro-1H-cyclopenta[a]phenanthren-11-yl)phenyl)(methyl)amino)hexanamide]
- IC50 [1]: < 10 nM
- IC50 [2]: < 10 nM
- IC50 (T47D cells): > 10000 nM
